{
  "source": "patent US9226897B2",
  "about": "“Self-assembling nanoparticles for the release of bisphosphonates in the treatment of human cancers” (Istituti Fisioterapici Ospitalieri, priority 2010, dated 2016)",
  "key": {"KB": {"system": "KB", "assay": "MTT proliferation assay, KB head/neck cancer cells", "assay_type": "cell-based", "conditions": "Homo sapiens, 72 h, read-out: IC50 (50% inhibitory concentration), growth inhibition", "protocol": "(§1) Human melanoma cells (M14) and doxorubicin resistant cells (M14+) were provided by Prof. G. Arancia form the National Institute of Health of Rome. […] Proliferation of human cancer cell lines was performed in the presence of increasing concentrations of different drugs by MTT assay as previously described by Caraglia et al. (Oncogene 2004).\n(§2) It was studied the effect of increasing concentrations of ZOL encapsulated in pre- and post-PLCaP NPs on growth inhibition of different human cancer cell lines, by MTT assay. In Table 2, the IC50 (50% inhibitory concentration) values of ZOL, free or encapsulated in pre- or post-PLCaP NPs, in the different cell lines analysed after 72 h, are reported. […] Moreover, when using ZOL-encapsulating NPs, we found a potentiation factor (PF)>1.0 in all tested cell lines, if compared with the free ZOL. […] In particular, on MCF7, pre-PLCaPZ NPs caused an about 12-fold potentiation of ZOL-induced cytotoxicity, while a lower effect (about 8-fold) was found with post-PLCaP NPs."}, "H1355": {"system": "H1355", "assay": "MTT proliferation assay, H1355 lung cancer cells", "assay_type": "cell-based", "conditions": "Homo sapiens, NCI-H1355, 72 h, read-out: IC50 (50% inhibitory concentration), growth inhibition", "protocol": "as §1, §2"}, "MIA PaCa": {"system": "MIA PaCa", "assay": "MTT proliferation assay, MIA PaCa pancreas cancer cells", "assay_type": "cell-based", "conditions": "Homo sapiens, MIA PaCa-2, 72 h, read-out: IC50 (50% inhibitory concentration), growth inhibition", "protocol": "as §1, §2"}, "BX-PC3": {"system": "BX-PC3", "assay": "MTT proliferation assay, BX-PC3 pancreas cancer cells", "assay_type": "cell-based", "conditions": "Homo sapiens, BXPC-3, 72 h, read-out: IC50 (50% inhibitory concentration), growth inhibition", "protocol": "as §1, §2"}, "OPM2": {"system": "OPM2", "assay": "MTT proliferation assay, OPM2 multiple myeloma cells", "assay_type": "cell-based", "conditions": "Homo sapiens, OPM-2, 72 h, read-out: IC50 (50% inhibitory concentration), growth inhibition", "protocol": "as §1, §2"}, "PC3": {"system": "PC3", "assay": "MTT proliferation assay, PC3 prostate cancer cells", "assay_type": "cell-based", "conditions": "Homo sapiens, PC-3, 72 h, read-out: IC50 (50% inhibitory concentration), growth inhibition", "protocol": "as §1, §2"}, "DU145": {"system": "DU145", "assay": "MTT proliferation assay, DU145 prostate cancer cells", "assay_type": "cell-based", "conditions": "Homo sapiens, DU-145, 72 h, read-out: IC50 (50% inhibitory concentration), growth inhibition", "protocol": "as §1, §2"}, "MCF7": {"system": "MCF7", "assay": "MTT proliferation assay, MCF7 breast cancer cells", "assay_type": "cell-based", "conditions": "Homo sapiens, 72 h, read-out: IC50 (50% inhibitory concentration), growth inhibition", "protocol": "as §1, §2"}, "RPMI": {"system": "RPMI", "assay": "MTT proliferation assay, RPMI multiple myeloma cells", "assay_type": "cell-based", "conditions": "Homo sapiens, Multiple myeloma cell, 72 h, read-out: IC50 (50% inhibitory concentration), growth inhibition", "protocol": "as §1, §2"}, "CG5": {"system": "CG5", "assay": "MTT proliferation assay, CG5 breast cancer cells", "assay_type": "cell-based", "conditions": "Homo sapiens, 72 h, read-out: IC50 (50% inhibitory concentration), growth inhibition", "protocol": "as §1, §2"}, "DOX": {"system": "DOX", "assay": "MTT proliferation assay, DOX multiple myeloma cells", "assay_type": "cell-based", "conditions": "Homo sapiens, Multiple myeloma cell, 72 h, read-out: IC50 (50% inhibitory concentration), growth inhibition", "protocol": "as §1, §2"}, "Panc": {"system": "Panc", "assay": "MTT proliferation assay, Panc pancreas cancer cells", "assay_type": "cell-based", "conditions": "Homo sapiens, 72 h, read-out: IC50 (50% inhibitory concentration), growth inhibition", "protocol": "as §1, §2"}, "KMS": {"system": "KMS", "assay": "MTT proliferation assay, KMS multiple myeloma cells", "assay_type": "cell-based", "conditions": "Homo sapiens, Multiple myeloma cell, 72 h, read-out: IC50 (50% inhibitory concentration), growth inhibition", "protocol": "as §1, §2"}, "MDA-MB468": {"system": "MDA-MB468", "assay": "MTT proliferation assay, MDA-MB468 breast cancer cells", "assay_type": "cell-based", "conditions": "Homo sapiens, MDA-MB-468, 72 h, read-out: IC50 (50% inhibitory concentration), growth inhibition", "protocol": "as §1, §2"}, "[1]": {"conditions": "cited from earlier work"}, "PC-3 cells": {"system": "PC-3 cells", "assay": "In vivo antitumoral activity on prostate cancer, PC-3 xenograft in nude mice", "design": "species or system CD-1 nude (nu/nu) mice", "conditions": "PC-3 tumors in nude mice, 20 μg ZOL i.v. three times a week for three weeks", "quoted_text": "CD-1 nude (nu/nu) mice, 6-8 weeks old were purchased from Charles River Laboratories (Milano, Italy).\nMice have been acclimated for one week before to be injected with tumor cells. Mice were injected intramuscularly with tumor cells at 3×10^6 cells/mouse in 200 μl of PBS. Six days after, a tumor mass of about 0.3 cm^3 in diameter was evident, mice were randomized in four groups. Six mice/group were treated with ZOL free or NP containing ZOL for 3 consecutive weeks. Tumor mass was calculated three times a week from caliper measurements by using the formula π/6 AB, where A is the major diameter and B is the minor diameter, corresponding to tumor mass (Sommer K. et al. International Journal of Oncology 2001). Toxicity was evaluating by measuring the body weight two times a week. Student's t test was used for statistical comparison of differences.\nAs control, a group of mice was treated with NP not containing ZOL, to evaluate the potential antitumoral effects. Mice were treated three times a week for three consecutive weeks. Antitumor efficacy of treatments was assessed by the following end-points: a) percent tumor weight inhibition (TWI %), calculated as [1-(mean tumor weight of treated mice/mean tumor weight of controls)]×100; b) tumor growth delay, evaluated as T−C, where T and C are the median times for treated (T) and untreated tumors (C), respectively, to achieve equivalent size."}, "[2]": {"conditions": "ZOL 4 mg intravenous over 15 min"}},
  "data": [
    {"compound": "O=P(O)(O)C(O)(Cn1ccnc1)P(=O)(O)O", "note": "[free ZOL, zoledronic acid]", "values": [
      {"measurement": "IC50", "setting": "KB", "value": 22.8, "unit": "µM"},
      {"measurement": "IC50", "setting": "H1355", "value": 65, "unit": "µM"},
      {"measurement": "IC50", "setting": "MIA PaCa", "value": 55, "unit": "µM"},
      {"measurement": "IC50", "setting": "BX-PC3", "value": 12.3, "unit": "µM"},
      {"measurement": "IC50", "setting": "OPM2", "value": 83, "unit": "µM"},
      {"measurement": "IC50", "setting": "PC3", "value": 12.5, "unit": "µM"},
      {"measurement": "IC50", "setting": "DU145", "value": 25, "unit": "µM"},
      {"measurement": "IC50", "setting": "MCF7", "value": 120, "unit": "µM"},
      {"measurement": "IC50", "setting": "RPMI", "value": 120, "unit": "µM"},
      {"measurement": "IC50", "setting": "CG5", "value": 74, "unit": "µM"},
      {"measurement": "IC50", "setting": "DOX", "value": 41.9, "unit": "µM"},
      {"measurement": "IC50", "setting": "Panc", "value": 32, "unit": "µM"},
      {"measurement": "IC50", "setting": "KMS", "value": 30, "unit": "µM"},
      {"measurement": "IC50", "setting": "MDA-MB468", "value": 28.4, "unit": "µM"},
      {"measurement": "distribution plasma half-life (t1/2)", "setting": "[1]; [2]", "value": 0.25, "unit": "h"},
      {"measurement": "elimination plasma half-life (t1/2β)", "setting": "[1]; [2]", "value": 1.75, "unit": "h"},
      {"measurement": "Cmax", "setting": "[1]; ZOL 4 mg intravenous over 15 min, read-out: maximum plasma concentration (Cmax)", "value": "~1000", "unit": "nM"},
      {"measurement": "initially administered dose retained in the skeleton", "setting": "[1]; in vivo", "value": "approximately 55%"},
      {"measurement": "TWI (%), percent tumor weight inhibition", "setting": "PC-3 cells; at the nadir of the effect", "value": 17, "unit": "%"},
      {"measurement": "T-C (days), tumor growth delay", "setting": "PC-3 cells; median times to equivalent size", "value": 5, "unit": "days"}
    ]}
  ]
}
